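Exposure lasted 48 hours, with cells grown in 96-well plates and compounds tested at five concentrations. TGI: total growth inhibition.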
Assays:
Experiment in all cases: NCI anticancer screen, dose series, 48 h
[1] = system: KM20L2 colon
[2] = system: RXF 393 renal
[3] = system: ACHN renal
[4] = system: LXFL 529 NSCLC
[5] = system: HCC-2998 colon
[6] = system: OVCAR-3 ovarian
[7] = system: M14 melanoma
[8] = system: A549 NSCLC
[9] = system: SNB-75 CNS
[10] = system: HT29 colon
[11] = system: RPMI-8226 leukemia
[12] = system: SK-MEL-2 melanoma
[13] = system: OVCAR-5 ovarian
[14] = system: TK-10 renal
[15] = system: SNB-78 CNS
[16] = system: UO-31 renal
[17] = system: OVCAR-4 ovarian
[18] = system: EKVX NSCLC
[19] = system: NCI-H23 lung
[20] = system: SK-MEL-28 melanoma
[21] = system: UACC-257 melanoma
[22] = system: SW-620 colon
[23] = system: 786-0 renal
[24] = system: CCRF-CEM leukemia
[25] = system: SF-268 CNS
[26] = system: HOP-62 NSCLC
[27] = system: LOX IMVI melanoma
[28] = system: SF-295 CNS
[29] = system: UACC-62 melanoma
[30] = system: U251 CNS
[31] = system: COLO 205 colon
[32] = system: M19-MEL melanoma
[33] = system: MOLT-4 leukemia
[34] = system: OVCAR-8 ovarian
[35] = system: IGROV1 ovarian
[36] = system: SN12C renal
[37] = system: SK-MEL-5 melanoma
[38] = system: HCT-116 colon
[39] = system: NCI-H226 lung
[40] = system: DMS 114 small cell lung
[41] = system: MALME-3M melanoma
[42] = system: NCI-H460 lung
[43] = system: SNB-19 CNS
[44] = system: HL-60(TB) leukemia
[45] = system: HOP-92 NSCLC
[46] = system: DLD-1 colon
[47] = system: KM12 colon
[48] = system: XF 498 CNS
[49] = system: DMS 273 small cell lung
[50] = system: HCT-15 colon
[51] = system: SF-539 CNS
[52] = system: K-562 leukemia
[53] = system: SK-OV-3 ovarian
[54] = system: CAKI-1 renal
[55] = system: SR leukemia
[56] = system: NCI-H522 lung
[57] = system: A498 renal
[58] = system: DU-145 prostate
[59] = system: PC-3 prostate
[60] = system: T-47D breast
[61] = system: MDA-MB-231 breast
[62] = system: MCF7 breast
[63] = system: NCI/ADR-RES ovarian
[64] = system: MDA-MB-435
[65] = system: HS 578T breast
[66] = system: BT-549 breast
[67] = system: MDA-N

## N#CC(/C(=N/NC(=O)C(=O)NN)C(=O)Nc1nc([N+](=O)[O-])cs1)c1ccc(Cl)cc1 (stereo unspecified)
[1]
  TGI: > 100 µM
[2]
  TGI: > 100 µM
[3]
  TGI: > 100 µM
[4]
  TGI: > 100 µM
[5]
  TGI: > 100 µM
[6]
  TGI: > 100 µM
[7]
  TGI: > 100 µM
[8]
  TGI: > 100 µM
[9]
  TGI: > 100 µM
[10]
  TGI: > 100 µM
[11]
  TGI: > 100 µM
[12]
  TGI: > 100 µM
[13]
  TGI: > 100 µM
[14]
  TGI: > 100 µM
[15]
  TGI: > 100 µM
[16]
  TGI: > 100 µM
[17]
  TGI: > 100 µM
[18]
  TGI: > 100 µM
[19]
  TGI: > 100 µM
[20]
  TGI: > 100 µM
[21]
  TGI: > 100 µM
[22]
  TGI: > 100 µM
[23]
  TGI: > 100 µM
[24]
  TGI: > 100 µM
[25]
  TGI: > 100 µM
[26]
  TGI: > 100 µM
[27]
  TGI: > 100 µM
[28]
  TGI: > 100 µM
[29]
  TGI: > 100 µM
[30]
  TGI: > 100 µM
[31]
  TGI: > 100 µM
[32]
  TGI: > 100 µM
[33]
  TGI: > 100 µM
[34]
  TGI: > 100 µM
[35]
  TGI: > 100 µM
[36]
  TGI: > 100 µM
[37]
  TGI: > 100 µM
[38]
  TGI: > 100 µM
[39]
  TGI: > 100 µM
[40]
  TGI: > 100 µM
[41]
  TGI: > 100 µM
[42]
  TGI: > 100 µM
[43]
  TGI: > 100 µM
[44]
  TGI: > 100 µM
[45]
  TGI: > 100 µM
[46]
  TGI: > 100 µM
[47]
  TGI: > 100 µM
[48]
  TGI: > 100 µM

## O=C(CCC(=O)Nc1cccc(Cl)c1)CC(=O)c1ccc(F)cc1
[1]
  TGI: > 100 µM
[49]
  TGI: > 100 µM
[3]
  TGI: > 100 µM
[50]
  TGI: > 100 µM
[51]
  TGI: > 100 µM
[5]
  TGI: > 100 µM
[6]
  TGI: > 100 µM
[7]
  TGI: > 100 µM
[8]
  TGI: > 100 µM
[9]
  TGI: > 100 µM
[10]
  TGI: > 100 µM
[11]
  TGI: > 100 µM
[12]
  TGI: > 100 µM
[13]
  TGI: > 100 µM
[14]
  TGI: > 100 µM
[15]
  TGI: > 100 µM
[16]
  TGI: > 100 µM
[17]
  TGI: > 100 µM
[19]
  TGI: > 100 µM
[20]
  TGI: > 100 µM
[21]
  TGI: > 100 µM
[22]
  TGI: > 100 µM
[23]
  TGI: > 100 µM
[25]
  TGI: > 100 µM
[26]
  TGI: > 100 µM
[27]
  TGI: > 100 µM
[28]
  TGI: 61.2 µM
[29]
  TGI: > 100 µM
[52]
  TGI: > 100 µM
[31]
  TGI: > 100 µM
[53]
  TGI: > 100 µM
[33]
  TGI: > 100 µM
[54]
  TGI: > 100 µM
[34]
  TGI: > 100 µM
[55]
  TGI: > 100 µM
[36]
  TGI: > 100 µM
[38]
  TGI: > 100 µM
[39]
  TGI: > 100 µM
[56]
  TGI: > 100 µM
[41]
  TGI: > 100 µM
[42]
  TGI: > 100 µM
[43]
  TGI: > 100 µM
[44]
  TGI: > 100 µM
[45]
  TGI: > 100 µM
[46]
  TGI: > 100 µM
[47]
  TGI: > 100 µM
[48]
  TGI: > 100 µM

## Cc1ccc(N=NC2S/C(=C(\C#N)c3nc4ccccc4[nH]3)N(c3ccccc3)C2=O)cc1 (stereo unspecified)
[1]
  TGI: > 100 µM
[2]
  TGI: 81.5 µM
[49]
  TGI: > 100 µM
[3]
  TGI: > 100 µM
[50]
  TGI: > 100 µM
[4]
  TGI: > 100 µM
[51]
  TGI: > 100 µM
[6]
  TGI: > 100 µM
[7]
  TGI: > 100 µM
[8]
  TGI: > 100 µM
[9]
  TGI: 82.5 µM
[10]
  TGI: > 100 µM
[12]
  TGI: > 100 µM
[13]
  TGI: > 100 µM
[14]
  TGI: > 100 µM
[15]
  TGI: > 100 µM
[16]
  TGI: > 100 µM
[17]
  TGI: > 100 µM
[18]
  TGI: > 100 µM
[19]
  TGI: > 100 µM
[20]
  TGI: > 100 µM
[57]
  TGI: > 100 µM
[21]
  TGI: > 100 µM
[22]
  TGI: > 100 µM
[23]
  TGI: 71.9 µM
[24]
  TGI: > 100 µM
[25]
  TGI: > 100 µM
[26]
  TGI: 81.1 µM
[27]
  TGI: > 100 µM
[28]
  TGI: > 100 µM
[29]
  TGI: > 100 µM
[52]
  TGI: > 100 µM
[30]
  TGI: > 100 µM
[31]
  TGI: > 100 µM
[32]
  TGI: > 100 µM
[53]
  TGI: > 100 µM
[54]
  TGI: > 100 µM
[34]
  TGI: > 100 µM
[35]
  TGI: > 100 µM
[36]
  TGI: > 100 µM
[37]
  TGI: > 100 µM
[38]
  TGI: > 100 µM
[39]
  TGI: > 100 µM
[56]
  TGI: > 100 µM
[40]
  TGI: > 100 µM
[41]
  TGI: > 100 µM
[42]
  TGI: > 100 µM
[43]
  TGI: > 100 µM
[44]
  TGI: > 100 µM
[45]
  TGI: > 100 µM
[46]
  TGI: > 100 µM
[48]
  TGI: > 100 µM

## CC(=O)NNc1nc(C)c(C(/C=C/c2ccc([N+](=O)[O-])cc2)=N/N)s1
[2]
  TGI: > 100 µM
[58]
  TGI: > 100 µM
[3]
  TGI: > 100 µM
[50]
  TGI: > 100 µM
[51]
  TGI: > 100 µM
[5]
  TGI: > 100 µM
[6]
  TGI: > 100 µM
[7]
  TGI: > 100 µM
[59]
  TGI: > 100 µM
[8]
  TGI: > 100 µM
[9]
  TGI: > 100 µM
[60]
  TGI: > 100 µM
[10]
  TGI: > 100 µM
[11]
  TGI: 89.2 µM
[12]
  TGI: > 100 µM
[13]
  TGI: > 100 µM
[14]
  TGI: > 100 µM
[16]
  TGI: > 100 µM
[17]
  TGI: > 100 µM
[18]
  TGI: > 100 µM
[19]
  TGI: > 100 µM
[61]
  TGI: 95.4 µM
[20]
  TGI: > 100 µM
[57]
  TGI: > 100 µM
[21]
  TGI: > 100 µM
[22]
  TGI: > 100 µM
[23]
  TGI: > 100 µM
[24]
  TGI: > 100 µM
[62]
  TGI: > 100 µM
[25]
  TGI: > 100 µM
[63]
  TGI: > 100 µM
[26]
  TGI: > 100 µM
[64]
  TGI: > 100 µM
[27]
  TGI: > 100 µM
[28]
  TGI: > 100 µM
[29]
  TGI: > 100 µM
[52]
  TGI: > 100 µM
[65]
  TGI: > 100 µM
[30]
  TGI: > 100 µM
[31]
  TGI: > 100 µM
[53]
  TGI: > 100 µM
[33]
  TGI: > 100 µM
[66]
  TGI: > 100 µM
[54]
  TGI: > 100 µM
[34]
  TGI: > 100 µM
[55]
  TGI: > 100 µM
[35]
  TGI: > 100 µM
[36]
  TGI: > 100 µM
[37]
  TGI: > 100 µM
[38]
  TGI: > 100 µM
[39]
  TGI: > 100 µM
[56]
  TGI: > 100 µM
[41]
  TGI: > 100 µM
[42]
  TGI: > 100 µM
[43]
  TGI: > 100 µM
[44]
  TGI: > 100 µM
[45]
  TGI: > 100 µM
[47]
  TGI: > 100 µM
[67]
  TGI: > 100 µM

Reference: PubChem BioAssay (NCI)
